According to patent publication US10647675B2 (priority 2015, dated 2020):

Assays:
[1] = tested on: Trichophyton mentagrophytes SM-110; assay: Antifungal activity evaluation test: minimum inhibitory concentration (MIC), broth dilution by reference to CLSI M38-A2; assay type: cell-based; conditions: SM110, read-out: MIC (T. menta.)
Procedure, shortened: (§1)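 MIC read visually as lowest concentration inhibiting growth by at least 80% relative to control after 4 days at 35° C. Trichophyton strains inoculated at 2×10^3 cells/mL final in MOPS-buffered RPMI 1640 (pH 7.0); compounds as 2-fold DMSO series, CLSI M38-A2 basis.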

[2] = tested on: Trichophyton rubrum KD-1130; assay: as above; assay type: cell-based; conditions: KD1130, read-out: MIC (T. rubrum)
Procedure, shortened: as §1

[3] = Nail permeability test through human nail using Franz cell; assay type: in vitro ADME; conditions: 5% in propylene glycol:ethanol (1:4), 32° C.
Description: Permeability through human nail was measured by the method shown below using Franz cell. • Test Preparation: A test compound was dissolved in a propylene glycol:ethanol (1:4) mixed solution at a concentration of 5% to give a test preparation. As control compounds terbinafine and amorolfine were used. • (1) Human nail (thickness 300-500 μm) was fixed using a nail adapter for Franz cell, and mounted on Franz cell. • (2) The receptor chamber of the Franz cell was filled with phosphate buffer, and placed in a thermostatic chamber at 32° C. • (3) A test preparation was applied to the aforementioned human nail at 61 μL/cm^2, after which a receptor solution was collected over days, and the concentration of the test compound in the receptor was measured by a liquid chromatography mass spectrometry method (LC/MS/MS). The cumulative amount of drug permeation (μg/cm^2) was calculated from the measured drug concentration in the receptor. A cumulative amount of drug permeation relative to the time after start of the test was plotted and the slope at final 4 time points was taken as Flux (μg/cm^2/day). The abbreviations in the Table mean the following compounds • TBF: terbinafine • AMF: amorolfine

MIC [1]: ≤ 0.1 µg/mL | MIC [2]: ≤ 0.1 µg/mL | nail permeability (Flux) [3]: D (D: <0.001)
SMILES: CN(C/C=C/C#CC(C)(C)C)Cc1cccc2ccccc12 [TBF, terbinafine, reference compound]
